According to patent US10758609B2, “Cross-reactive T-cell epitopes of HIV, SIV, and FIV for vaccines in humans and cats” (priority 2015, dated 2020):

Assays:
[1] = tested on: CD8^+ T cells from HIV^+ subjects; assay: FACS-based intracellular staining (ICS) for cytolysin (perforin) and cytotoxins (GrzA, GrzB) in CD8+ T cells; details: HIV+ human subjects; for Cyto: CD8+ T-cell cytotoxins (perforin, GrzA & B), frequency of responders: FIV epitope peptide; for Cyto (cytolysin/cytotoxin production), frequency of responders: FIV peptides
Procedure, shortened: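 Peptides tested with PBMC and T cells from HIV^+ subjects, some on ART. CFSE proliferation positive at ≥2% CFSE^low CD4^+ or CD8^+ T cells; intracellular perforin, granzyme A and B staining by FACS positive at ≥0.2%.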

PBMC from cat SBA = assay type: cell-based; details: PBMC of cat SBA, 14 wk post-challenge boost

KKKSGKWRMLIDFRV [FRT3-3]
Cyto: CD8+ T-cell cytotoxins (perforin, GrzA & B), frequency of responders [1]: ++++ (>54% (++++))
Cyto (cytolysin/cytotoxin production), frequency of responders [1]: ++++ (>54% (++++))

PTDMATLIMAAPGCA [Fp4-3]
GrzA mRNA (PBMC from cat SBA): low
GrzB mRNA (PBMC from cat SBA): no detectable levels
IFNγ mRNA (PBMC from cat SBA): high
IL2 mRNA (PBMC from cat SBA): low
perforin mRNA (PBMC from cat SBA): no detectable levels

WRMLIDFRVLNKL [FRT3-4]
Cyto: CD8+ T-cell cytotoxins (perforin, GrzA & B), frequency of responders [1]: ++++ (>54% (++++))
Cyto (cytolysin/cytotoxin production), frequency of responders [1]: ++++ (>54% (++++))
